Experimental data: US10413535B2, “Pharmaceutical compositions comprising an integrin ALPHA4 antagonist for use in treating ocular inflammatory conditions” (AXEROVISION, INC., priority 2015, dated 2019)
Where two headings read alike, the source gives them in different places.

Assays:
[1] = tested on: J6 cell adhesion to MAdCAM; assay: MAdCAM cell adhesion assay, J6 cells; assay type: cell-based, human
Description: Jurkat J6 cells (human lymphoblast cell line) were grown as a suspension culture in RPMI 1640 supplemented with FCS (10%) and glutamine (2 mM). RPMI8866 cells (human B lymphoid cell line) were grown as a suspension culture in RPMI 1640 supplemented with FCS (10%) and glutamine (2 mM). RBL-2H3 cells (rat basophilic cell line) were cultured in Eagle's MEM plus Earles salts supplemented with 2 mM L-glutamine, 1 mM sodium pyruvate, 1× non-essential amino acids, 1 mM Na pyruvate 10% heat inactivated foetal calf serum.
Polystyrene 96-well microtitre plates were coated with IgG at a concentration of 0.05 mg/mL in bicarbonate buffer for 2.5 hours at 37° C. The solution was aspirated and the plates washed twice with PBS. The plates were then incubated overnight at 4° C. with MAdCAM at a concentration of 204.0 ng/mL in 3% BSA in PBS. Prior to use the MAdCAM was aspirated and the plates washed twice with PBS. J6 or RPMI cells (as required) were labelled with the fluorescent dye BCECF-AM (10 μM and 6×10^6 cells/mL) for 10 min at 37° C. before the excess was removed by centrifugation at 500 g for 5 min and the cells resuspended at a cell concentration of 1.2×10^7 cells/mL in HBSS. Equal volumes of HBSS containing the compound of formula I (over concentration range 38.1 pM to 10 μM) and cells were added to the MAdCAM coated plates. […] The plates were counted in a Wallac Viktor.

[2] = Toxicokinetics in 13-week topical ocular dog study; conditions: in vivo, topical or ocular
Description: GW559090A was given to Beagle Dogs by topical ocular administration for 13 weeks. Animals were dosed six or twelve times per day, with one hour between doses. Treatment groups were: (1) vehicle (12 times a day), (2) 30 mg/mL/occasion given six times a day, (3) 50 mg/mL/occasion given six times a day, or (4) 50 mg/mL/occasion, given 12 times a day.
GW559090A was formulated as a stock solution in 25 mM phosphate buffer with 0.5% sodium chloride to provide a 50 mg/mL stock solution, which was used for administration to Groups 3 or 4, or further diluted with 25 mM phosphate buffer with 0.75% sodium chloride to provide a 30 mg/mL solution for administration to Group 2.
During the 13 week treatment period dogs received daily topical ocular doses of GW559090 or vehicle (12 times a day) at a constant dose volume of 0.06 mL (given 6 or 12 times a day, with one hour between doses). The test article formulation or vehicle was carefully dropped into the everted lower eyelid of the left eye from a suitable distance, to prevent contact of the positive displacement pipette with the eye. The lower and upper lids were then gently held together for approximately five seconds, to prevent loss of dose and aid even distribution across the external ocular surface. The un-dosed eye was not manipulated at any time and served as a within animal untreated control site.

**Q.** Which results are given for `Cc1ccccc1OCC(=O)N[C@@H](CC(C)C)C(=O)N[C@@H](Cc1ccc(OC(=O)N2CCC(C(N)=O)CC2)cc1)C(=O)O` [GW559090, (2S)-3-[4-({[4-(Aminocarbonyl)-1-piperidinyl]carbonyl}oxy)phenyl]-2-[((2S)-4-methyl-2-{[2-(2-methylphenoxy)acetyl]amino}pentanoyl)amino]propanoic acid]?
**A.** Inhibition of J6 cell adhesion to MAdCAM (curve form) [1]: biphasic; AUC(0-t) ([2]; both sexes, Beagle, 50 mg/mL/occasion, dogs, males and females combined, 50 mg/mL/occasion 12 times a day, Week 13, read-out: AUC0-1 exposure at NOAEL): 11.2 ng·h/mL; Estimated AUC0-24 ([2]; both sexes, Beagle, 50 mg/mL/occasion, dogs, males and females combined, 50 mg/mL/occasion 12 times a day, Week 13, read-out: Estimated AUC0-24 at NOAEL): 134 ng·h/mL; Cmax ([2]; both sexes, Beagle, dogs, males and females combined, 50 mg/mL/occasion 12 times a day, Week 13, read-out: Cmax at NOAEL): 28.7 ng/mL; Tmax ([2]; female, beagle, 30 mg/mL/occasion, female dogs, 30 mg/mL, 6 daily doses, Day 1): 30 min; AUC(0-t) ([2]; female, beagle, 30 mg/mL/occasion, female dogs, 30 mg/mL, 6 daily doses, Day 1, read-out: AUC0-1): 5.27 ng·h/mL; AUC(0-t) ([2]; female, beagle, 30 mg/mL/occasion, female dogs, 30 mg/mL, 6 daily doses, Day 1, read-out: AUC0-24): 31.6 ng·h/mL; Cmax ([2]; female, beagle, 30 mg/mL/occasion, female dogs, 30 mg/mL, 6 daily doses, Day 1, read-out: Cmax): 12.2 ng/mL; Tmax ([2]; female, beagle, 30 mg/mL/occasion, female dogs, 30 mg/mL, 6 daily doses, Week 4): 22.5 min; AUC(0-t) ([2]; female, beagle, 30 mg/mL/occasion, female dogs, 30 mg/mL, 6 daily doses, Week 4, read-out: AUC0-1): 4.28 ng·h/mL; AUC(0-t) ([2]; female, beagle, 30 mg/mL/occasion, female dogs, 30 mg/mL, 6 daily doses, Week 4, read-out: AUC0-24): 25.7 ng·h/mL; Cmax ([2]; female, beagle, 30 mg/mL/occasion, female dogs, 30 mg/mL, 6 daily doses, Week 4, read-out: Cmax): 9.34 ng/mL; Tmax ([2]; female, beagle, 30 mg/mL/occasion, female dogs, 30 mg/mL, 6 daily doses, Week 13): 15 min; AUC(0-t) ([2]; female, beagle, 30 mg/mL/occasion, female dogs, 30 mg/mL, 6 daily doses, Week 13, read-out: AUC0-1): 6.05 ng·h/mL; AUC(0-t) ([2]; female, beagle, 30 mg/mL/occasion, female dogs, 30 mg/mL, 6 daily doses, Week 13, read-out: AUC0-24): 36.3 ng·h/mL; Cmax ([2]; female, beagle, 30 mg/mL/occasion, female dogs, 30 mg/mL, 6 daily doses, Week 13, read-out: Cmax): 17.5 ng/mL; Tmax ([2]; female, beagle, 50 mg/mL/occasion, female dogs, 50 mg/mL, 6 daily doses, Day 1): 15 min; AUC(0-t) ([2]; female, beagle, 50 mg/mL/occasion, female dogs, 50 mg/mL, 6 daily doses, Day 1, read-out: AUC0-1): 8.79 ng·h/mL; AUC(0-t) ([2]; female, beagle, 50 mg/mL/occasion, female dogs, 50 mg/mL, 6 daily doses, Day 1, read-out: AUC0-24): 52.7 ng·h/mL; Cmax ([2]; female, beagle, 50 mg/mL/occasion, female dogs, 50 mg/mL, 6 daily doses, Day 1, read-out: Cmax): 17 ng/mL; Tmax ([2]; female, beagle, 50 mg/mL/occasion, female dogs, 50 mg/mL, 6 daily doses, Week 4): 15 min; AUC(0-t) ([2]; female, beagle, 50 mg/mL/occasion, female dogs, 50 mg/mL, 6 daily doses, Week 4, read-out: AUC0-1): 5.26 ng·h/mL; AUC(0-t) ([2]; female, beagle, 50 mg/mL/occasion, female dogs, 50 mg/mL, 6 daily doses, Week 4, read-out: AUC0-24): 31.6 ng·h/mL; Cmax ([2]; female, beagle, 50 mg/mL/occasion, female dogs, 50 mg/mL, 6 daily doses, Week 4, read-out: Cmax): 11.4 ng/mL; Tmax ([2]; female, beagle, 50 mg/mL/occasion, female dogs, 50 mg/mL, 6 daily doses, Week 13): 10 min; AUC(0-t) ([2]; female, beagle, 50 mg/mL/occasion, female dogs, 50 mg/mL, 6 daily doses, Week 13, read-out: AUC0-1): 6.64 ng·h/mL; AUC(0-t) ([2]; female, beagle, 50 mg/mL/occasion, female dogs, 50 mg/mL, 6 daily doses, Week 13, read-out: AUC0-24): 39.8 ng·h/mL; Cmax ([2]; female, beagle, 50 mg/mL/occasion, female dogs, 50 mg/mL, 6 daily doses, Week 13, read-out: Cmax): 17.9 ng/mL; Tmax ([2]; female, beagle, 50 mg/mL/occasion, female dogs, 50 mg/mL, 12 daily doses, Day 1): 30 min; AUC(0-t) ([2]; female, beagle, 50 mg/mL/occasion, female dogs, 50 mg/mL, 12 daily doses, Day 1, read-out: AUC0-1): 12.8 ng·h/mL; AUC(0-t) ([2]; female, beagle, 50 mg/mL/occasion, female dogs, 50 mg/mL, 12 daily doses, Day 1, read-out: AUC0-24): 153 ng·h/mL; Cmax ([2]; female, beagle, 50 mg/mL/occasion, female dogs, 50 mg/mL, 12 daily doses, Day 1, read-out: Cmax): 21.8 ng/mL; Tmax ([2]; female, beagle, 50 mg/mL/occasion, female dogs, 50 mg/mL, 12 daily doses, Week 4): 10 min; AUC(0-t) ([2]; female, beagle, 50 mg/mL/occasion, female dogs, 50 mg/mL, 12 daily doses, Week 4, read-out: AUC0-1): 6.77 ng·h/mL; AUC(0-t) ([2]; female, beagle, 50 mg/mL/occasion, female dogs, 50 mg/mL, 12 daily doses, Week 4, read-out: AUC0-24): 81.2 ng·h/mL; Cmax ([2]; female, beagle, 50 mg/mL/occasion, female dogs, 50 mg/mL, 12 daily doses, Week 4, read-out: Cmax): 14.5 ng/mL; Tmax ([2]; female, beagle, 50 mg/mL/occasion, female dogs, 50 mg/mL, 12 daily doses, Week 13): 15 min
